Test results from patent US5447957A, “Anti-inflammatory compounds” (SmithKline Beecham Corp., priority 1994, dated 1995).

What was measured:
CoA-IT = test: Assay (b): CoA-IT activity in U937 cell microsomes; type: biochemical, human; conditions: generally at 50 μM or less
Text: Assay (b): CoA-IT Activity
The following is a method to measure CoA-IT activity and the effects of compounds on CoA-IT activity. The assay is based upon mixing cellular material containing CoA-IT activity with a stable lyso phospholipid such as […] and measuring the production of phospholipid product such as […] occurring in the absence of added CoA or CoA-fatty acids.
Any inflammatory cell that contains high levels of CoA-IT activity can be used, such as neutrophils, macrophages or cell lines such as U937 cells. […] Cells were grown without differentiation (basal state) by any agent, such as dimethyl sulfoxide. As used herein, "inflammatory cells" include, but are not limited to neutrophils, macrophages, monocytes, lymphocytes, eosinophils, basophils, and mast cells.
Microsomes were prepared using standard techniques. In this case, cells were washed with a buffer of 250 mM sucrose, 10 mM Tris, 1 mM EGTA, 1 mM MgCl2, pH 7.4 and ruptured by N2 cavitation (750 psi, 10 minutes). The ruptured cells were centrifuged 1000× g, 5 minutes. The resulting supernatant was centrifuged at 20,000×g,~20 minutes. Microsomes were prepared from this supernatant by centrifugation at 100,000× g, 60 minutes. The resulting pellet was washed once with assay buffer (150 mM NaCl, 10 mM Na2 KPO4, 1 mM EGTA, pH 7.4), recentrifuged and the pellet resuspended in assay buffer (4-20 mg protein/ml) and was stored at -80° C. until assayed.
CoA-IT activity was measured in 1.5 ml centrifuge tubes in a total volume of 100 ul. Microsomes were diluted in assay buffer to the desired protein concentration (6-20 ug/tube). The reaction was initiated by addition of [3H] 1-alkyl-2-lyso-sn-glycero-3-phosphocholine (GPC)(~0.1 uCi/tube) and 1 μM final cold 1-alkyl-2-lyso-GPC in assay buffer with 0.25 mg/ml fatty acid-poor bovine serumalbumin (BSA) (Calbiochem, La Jolla, Calif.). [3H]1-alkyl-2-lyso-GPC, approximately 50 Ci/mmol, was from NEN-Dupont (Boston, Mass.) and cold 1-alkyl-2-lyso-GPC was from Biomol (Plymouth Meeting, Penn.). Microsomes were pretreated with desired agents for the desired time (10 minutes) before the addition of [3H]1-alkyl-2-lyso-GPC. The reaction was run for the desired time (10 minutes) at 37° C. The reaction was stopped and the lipids extracted by addition of 100 ul of chloroform:methanol (1:2, v/v) followed by 100 ul of chloroform and 100 ul of 1M KCI. The samples were vortexed and centrifuged at high speed in a microfuge for 2-3 minutes. An aliquot of the chloroform-extracted materials were separated, usually by TLC in chloroform/methanol/acetic acid/water (50:25:8:4, v/v), visualized by radioscanning (Bioscan) and the product, [3H] 1-alkyl-2-acyl-GPC, was scraped and quantified by liquid scintillation spectroscopy. […] Other methods can be used to separate substrate from product, including but not limited to column chromatography, affinity chromatography and post reaction derivitization.

human neutrophils = test: Assay (d): Production of Platelet-Activating Factor (PAF), A23187-challenged neutrophils; type: cell-based; conditions: A23187 2 μM
Method: Assay (d): Assay for Production of Platelet-Activating Factor (PAF)
Blood is obtained from normal humans and neutrophils were isolated as described for the arachidonic acid release assay, above. The final leukocyte preparation should be of greater than 95% purity and viability.
Neutrophils were suspended in PBS at concentrations of 5 to 20×10^6 cells per ml. Cells were added to test tubes and treated with the desired compounds for 5 to 10 minutes, then challenged with calcium ionophore A23187, 2 μM and 20-30 μCi of [3H]acetic acid (NEN-Dupont, Boston, Mass.), or the vehicle of PBS with 0.25-1 mg/ml. After 5 to 20 minutes, the reactions were terminated by addition of an equal volume of chloroform:methanol (1:2, v/v) to the samples and the lipids were extracted by addition of equal volumes of chloroform and distilled water. The samples were vortexed and centrifuged at high speed and the chloroform layer removed to a clean tube.
The chloroform from each tube was evaporated to dryness and the material suspended in a small volume of chloroform or chloroform:methanol (25-100 μl) and the total material spotted on a Silica TLC plate. The plates were developed in chloroform/methanol/acetic acid/water (50:25:8:4, v/v) visualized by radioscanning (Bioscan) and the product, [^3 H]PAF, was scraped and quantified by liquid scintillation spectroscopy. […]

[1] = system: TPA-induced Mouse Ear Inflammation; test: Assay (g): TPA-induced Mouse Ear Inflammation (ear edema and MPO); type: in vivo; conditions: "this animal model"; topical
Text: The ability of compounds that inhibit CoA-IT and/or PLA2 to affect in vivo inflammatory responses may be assessed. Inflammatory responses are induced in the mouse ear by the topical application of a pro-inflammatory agent, such as 12-0-tetradecanoylphorbol 13-acetate (assay g). This produces an edematous response, as measured by increases in ear thickness, as well as increased inflammatory cellular infiltrate, as measured by increases in myeloperoxidase activity (as described in the methods). To further validate the mechanism of action inflammation induced by the direct adminstration of arachidonic acid can be used. In this case compounds altering arachidonic acid mobilization or liberation should be with our effect.
Male Balb/c inbred mice were obtained from Charle River Breeding Laboratories (Kingston, N.Y.). Within a single experiment mice (22-25 g) were age-matched. These in vivo experiments typically involved use of 5-6 animals/group.
TPA (12-0-tetradecanoylphorbol 13-acetate) (Sigma Chemical Company) in acetone ([…]) was applied to the inner and outer surfaces of the left ear of BALB/c male mice. The thickness of both ears was then measured with a dial micrometer (Mitutoyo, Japan) at both 2 and 4 hours after treatment, and the data expressed as the change in thickness (10^-3 cm) between treated and untreated ears. […] After measuring the edema, the inflammed left ears were removed and stored at -70° C. until they were assayed for MPO (myeloperoxidase) activity where appropriate.
On the day of the assay, partially thawed ear tissues were minced and then homogenized (10% w/v) with a Tissumizer homogenizer (Tekmar Co.) in 50 mM phosphate buffer (pH 6) containing 0.5% HTAB. The tissue homogenates were taken through three cycles of freeze-thaw, followed by brief sonication (10 sec). The method of Bradley et al. was used with modifications as described. The appearance of a colored product from the MPO-dependent reaction of o-dianisidine (0.167 mg/ml; Sigma) and hydrogen peroxide (0.0005%; Sigma) was measured spectrophotometrically at 460 nm. Supernatant MPO activity was quantified kinetically (change in absorbance measured over 3 min, sampled at 15-sec intervals) using a Beckman DU-7 spectrophotometer and a Kinetics Analysis package (Beckman Instruments, Inc.). One unit of MPO activity is defined as that degrading one micromole of peroxide per minute at 25° C.
Statistical analysis was done using Student's "t" test. The ED50 are values which cause a 50% inhibition of the inflammatory response and are calculated by regression analysis of the dose response data.

Row | inhibition of CoA-IT activity in the microsomal CoA-IT assay (CoA-IT) | Compound | inhibition of PAF production (human neutrophils) | inhibition in mouse ear inflammation animal model [1]
1 | inhibit CoA-IT activity | O=C(Nc1cc(C(F)(F)F)cc(C(F)(F)F)c1)Nc1ccccc1Oc1ccccc1C(=O)O [Example 2, 2-[2-[3-[3,5-Bis (trifluoromethyl)phenyl]ureido]phenoxy]benzoic acid] | positive activity | positive inhibition
2 | inhibit CoA-IT activity | O=C(Nc1cc(C(F)(F)F)cc(C(F)(F)F)c1)Nc1cc(C(F)(F)F)ccc1Oc1ccccc1C(=O)O [Example 7, 2-[2-[3-[3,5-Bis(trifluoromethyl)phenyl]ureido]-4-trifluoromethylphenoxy]benzoic acid] | positive activity | positive inhibition
